Results from article PMC4627731, “Leishmanicidal Effect of Synthetic trans-Resveratrol Analogs” (PLoS ONE, 2015).
Values joined by “and” are separate entries in the source; they are usually repeats but may differ in a detail not shown here. Equal entries are not always repeated. Where two headings read alike, the source gives them in different places.

Columns and labels:
[1] = system: Leishmania amazonensis promastigotes; experiment: Anti-promastigote activity (XTT); format: cell-based; conditions: read-out: IC50 Promastigotes
Procedure: L. amazonensis (WHOM/BR/75/Josefa) promastigotes were cultured at 26°C in Schneider insect medium (Sigma), 10% fetal calf serum (Gibco-BRL, MD, US.) and 20 μg/mL of gentamycin (Schering-Plough, Rio de Janeiro, Brazil).
The leishmanicidal properties of the analogs were evaluated by measuring promastigotes’ mitochondrial activity using the XTT method with 2,3-bis-[2-methoxy-4-nitro-5-sulphophenyl]-2H-tetrazolium-5-carboxanilida, Sigma) as described previously. […] Sodium azide (10 μM) was used as a control, and the reaction product was read at 450 nm.

[2] = system: Leishmania amazonensis promastigotes; experiment: Annexin V binding assay; format: cell-based; conditions: 48 h; piceatannol 100 μM, miltefosine 30 μM
Procedure: Double staining for annexin V-fluorescein isothiocyanate (FITC) and PI was performed with the Annexin-V apoptosis detection kit (Molecular Probes). […] They were then washed twice in cold annexin V-buffer and centrifuged at 2760 x g for 10 min. Pellets were resuspended in 20 μL of annexin V FITC, and after 15 min of incubation in the dark, 480 μL of annexin V-buffer was added according to the manufacturer instructions. Annexin V-FITC labeling was recorded on a BD FACScalibur (Becton and Dickson) and analyzed using CellQuest software.

[3] = system: murine peritoneal macrophages; experiment: Nitric oxide production by macrophages (Griess); format: cell-based, mouse
Procedure: Thioglycolate-stimulated peritoneal macrophages were obtained as described above (10^6 cells/well in 24-well plate) and were activated with 1 μg/ml LPS (Sigma-Aldrich) or left untreated. […] The nitrite concentrations in the culture supernatants were determined using the Griess method. The reaction was read at 540 nm, and the concentration of NO2 ^- determined using a standard curve of sodium nitrite. The results are expressed as micromolar concentrations of nitrite.

[4] = system: L. amazonensis intracellular amastigotes; experiment: Anti-amastigote activity in infected macrophages; format: cell-based, Leishmania amazonensis; conditions: for IC50: L. amazonensis in murine peritoneal macrophages, 24 h treatment; for SI (selectivity index; therapeutic index): ratio of CC50 on murine peritoneal macrophages to IC50 on L. amazonensis intracellular amastigotes
Procedure: Mice peritoneal macrophages obtained after stimulation with thioglycolate for 3 days were harvested in RPMI 1640 medium (LGC Biotecnologia, São Paulo, Brazil), 20 μg/mL of gentamycin and were plated onto 13 mm^2 coverslips inside 24-well plates for adherence for 2 h at 37°C, 5% CO2. Non-adherent cells were removed, and the macrophages were incubated overnight in RPMI supplemented with 10% FCS, as described above. Adhered macrophages were infected with L. amazonensis promastigotes (stationary growth phase) at a 10:1 parasite/macrophage ratio and incubated for 1 h at 34°C, 5% CO2. Free parasites were washed out with 0.01 M phosphate buffered saline (PBS), and the cultures maintained for 24 h at 37°C, 5% CO2. Infected macrophage cultures were treated with different concentrations of the analogs for an additional 24 h at 37°C, 5% CO2. Monolayers were then washed with PBS at 37°C, fixed in methanol, and stained with Giemsa. The number of amastigotes and the percentage of infected macrophages were determined by counting at least 200 cells in duplicate cultures. Endocytic indices were obtained by multiplying the percentage of infected macrophages by the mean number of amastigotes per infected macrophage. The results were expressed as the percentage of surviving macrophages based on endocytic indices of treated and untreated macrophages as reported previously.
The selectivity index was calculated as the ratio of murine peritoneal macrophages CC50 by L. amazonensis intracellular amastigotes IC50.

[5] = system: murine peritoneal macrophages; experiment: Detection of reactive oxygen species (DHR 123); format: cell-based, mouse; conditions: compounds at amastigote IC50
Procedure: Mice peritoneal macrophages were adhered to 96-well opaque culture plates and then infected or not with L. amazonensis promastigotes. […] The cells were then stained with 50 μM dihydrorhodamine 123 (DHR 123, Life Technologies), and ROS was measured immediately using 500/526 nm excitation/emission wavelengths.

[6] = Nitric oxide-trapping capacity, cell-free SNAP system; conditions: 1 mM SNAP, 6 h, rutin 1 mM, pterostilbene 33.2 μM, piceatannol 45 μM, polydatin 29 μM, oxyresveratrol 30.5 μM
Procedure: A cell-free system with an NO donor was used to test the capacity of resveratrol analogs to trap NO. SNAP (s-nitroso n-acetyl DL-penicillamine, Sigma) liberates nitric oxide in solution, which is then transformed to nitrite in the medium. The addition of a NO scavenger to the SNAP solution results in nitrite decay in the supernatant. […] One milimolar rutin (Sigma), a known NO scavenger, was used as a positive control for this assay. After 6 h of incubation, the nitrite concentration was determined using the Griess method. The results are expressed as the μM concentration of nitrite calculated in comparison with the sodium nitrite standard curve.

[7] = system: Leishmania amazonensis promastigotes; experiment: Cell cycle analysis (PI, flow cytometry); format: cell-based; conditions: 48 h; for Effect on the cell cycle of the parasite: at promastigote IC50; for % cells in different stages of the cell cycle: G0/G1 / % cells in different stages of the cell cycle: G2/M / % cells in different stages of the cell cycle: S / % cells in different stages of the cell cycle: Sub-G0 / % cells: Hyperploidies: pterostilbene 17.7 μM, piceatannol 65 μM, polydatin 95.4 μM, oxyresveratrol 65 μM, mean ± SEM
Procedure: The cells were washed with PBS and fixed in 70% (v/v) ice-cold methanol/PBS for at least 1 h at 4°C. The fixed cells were washed once with PBS and then incubated in PBS supplemented with 10 μg/mL propidium iodide (PI) and 20 μg/mL RNAse at 37°C, 45 min, as reported. For each sample, 10000 events were collected on a BD FACScalibur (Becton and Dickson) and analyzed using CellQuest software.

[8] = system: Leishmania amazonensis promastigotes; experiment: Mitochondrial membrane potential (JC-1); format: cell-based; conditions: 65 μM, 48 h, JC-1 red/green ratio
Procedure: Change in ΔΨm was measured using the mitochondria staining kit (Sigma-Aldrich).

[9] = system: promastigotes of L. donovani; conditions: cited from earlier work
[10] = Cytotoxicity for host macrophages (XTT); format: cell-based; conditions: mouse, murine peritoneal macrophages
Procedure: After 3 h of incubation, the reaction product was read at 450 nm. The results are expressed in percentage of viable cells compared to untreated control.

[11] = system: promastigotes of L. major; conditions: cited from earlier work
[12] = system: promastigotes of L. infantum; conditions: cited from earlier work
[13] = system: amastigotes of L. donovani in RAW macrophages; conditions: cited from earlier work
[14] = system: amastigote form of L. infantum; parameters: method as in PMID 23103597; conditions: cited from earlier work
[15] = system: promastigote form of L. infantum; parameters: method as in PMID 23103597; conditions: cited from earlier work
[16] = macrophages infected with L. amazonensis, 29 μM polydatin, 30.5 μM oxyresveratrol
[17] = Leishmania amazonensis, Peritoneal macrophage
[18] = L. amazonensis infected macrophages
[19] = infected and PMA-stimulated macrophages
[20] = uninfected macrophages stimulated with 1 μg/mL PMA
[21] = Leishmania amazonensis, 48 h, L. amazonensis promastigotes, 48 h treatment, XTT
[22] = uninfected macrophages stimulated with LPS, 33.2 μM pterostilbene, 45 μM piceatannol
[23] = L. amazonensis promastigotes, 48 h treatment, XTT
[24] = uninfected macrophages not stimulated, 33.2 μM pterostilbene, 29 μM polydatin

Molecule	IC50 [4, 17]	SI (selectivity index; therapeutic index) [4]	Reduction of ROS levels [5, 18]	Reduction of ROS levels [5, 19]	Reduction of ROS levels [5, 20]	Reduction of ROS levels ([5]; uninfected macrophages)	Decrease of NO levels (NO scavenging) [6]	Effect on the cell cycle of the parasite [7]	% cells in different stages of the cell cycle: G0/G1 [7]	% cells in different stages of the cell cycle: G2/M [7]	% cells in different stages of the cell cycle: S [7]	% cells in different stages of the cell cycle: Sub-G0 [7]	% cells: Hyperploidies [7]	other results
C[C@@H]1[C@H](O)[C@@H](C)/C=C/C=C/C=C/C=C/C=C/C=C/C=C/[C@H](O[C@@H]2O[C@H](C)[C@@H](O)[C@H](N)[C@@H]2O)C[C@@H]2O[C@](O)(C[C@@H](O)C[C@@H](O)[C@H](O)CC[C@@H](O)C[C@@H](O)CC(=O)O[C@H]1C)C[C@H](O)[C@H]2C(=O)O [Amphotericin B, reference compound]	–	–	–	–	–	–	–	–	–	–	–	–	–	IC50 ([1]; Leishmania amazonensis, 48 h): 0.1 µM
CCCCCCCCCCCCCCCCOP(=O)([O-])OCC[N+](C)(C)C [Miltefosine, reference compound]	–	–	–	–	–	–	–	–	–	–	–	–	–	Increase of annexin-V positive promastigotes in relation to untreated control [2]: 13.2 fold
Oc1cc(O)cc(/C=C/c2ccc(O)cc2O)c1 [Oxyresveratrol, trans-2,3′,4,5′-tetrahydroxystilbene]	30.5 µM	4.2	4.6 fold	4.7 fold	4.8 fold	3.6 fold	did not reduce the levels of NO	did not alter the cell cycle	34.380 ± 2.300%	21.073 ± 2.386%	9.570 ± 0.444%	10.413 ± 3.895%	24.862 ± 2.500%	IC50 ([1]; Leishmania amazonensis, 48 h): 65 µM; Decrease of NO production [3, 16]: 2.0 fold
Oc1cc(O)cc(/C=C/c2ccc(O)c(O)c2)c1 [Piceatannol, trans-3,4,3',5'-tetrahydroxystilbene]	45 µM	>8.9	5.8 fold	6.6 fold	4.3 fold	3.4 fold	did not reduce the levels of NO	–	21.890 ± 0.840 %	14.273 ± 0.966%	8.167 ± 0.522%	30.990 ± 1.544 %	24.947 ± 0.801%	IC50 [1, 21]: 65 µM; Reduction in the mitochondrial membrane potential (ΔΨm) [8]: 2.8 fold; Increase of annexin-V positive promastigotes in relation to untreated control [2]: 2.5 fold; Decrease of NO production [3, 22]: 5.0 fold; IC50 [9]: 17.2 µM; IC50 promastigotes of L. donovani [9]: 4.2 µg/mL; CC50 at 24 h [10]: > 400 µM; IC50 [11]: 23.3 µM; IC50 promastigotes of L. major [11]: 5.7 µg/mL; IC50 [12]: 16 µM; IC50 promastigotes of L. infantum [12]: 3.9 µg/mL; IC50 [13]: 30.3 µM; IC50 amastigotes of L. donovani in RAW macrophages [13]: 7.4 µg/mL; Decrease of cells in G0-G1 phase ([7]; 65 μM): 1.7 fold; Increase of cells in Sub-G0 phase ([7]; 65 μM): 5 fold
OC[C@H]1O[C@@H](Oc2cc(O)cc(/C=C/c3ccc(O)cc3)c2)[C@H](O)[C@@H](O)[C@@H]1O [Polydatin, resveratrol-3-O-b-mono-D-glucoside]	29 µM	5.2	2.1 fold	2.2 fold	2.0 fold	1.8 fold	did not reduce the levels of NO	did not alter the cell cycle	32.040 ± 2.699%	20.090 ± 2.661%	8.698 ± 0.946%	13.250 ± 4.747%	26.233 ± 1.273%	IC50 [1, 23]: 95.5 µM; IC50 [1, 21]: 95 µM; Decrease of NO production [3, 16]: 6.1 fold; Decrease of NO production [3, 24]: 2.8 fold
C[C@@H]1O[C@@H](OC[C@H]2O[C@@H](Oc3c(-c4ccc(O)c(O)c4)oc4cc(O)cc(O)c4c3=O)[C@H](O)[C@@H](O)[C@@H]2O)[C@H](O)[C@H](O)[C@H]1O [rutin, reference compound]	–	–	–	–	–	–	72%	–	–	–	–	–	–	–
trans-3,5-dimethoxy-4-hydroxystilbene [Pterostilbene]	–	–	1.6 fold	1.6 fold	2.0 fold	–	22%	did not alter the cell cycle	42.380 ± 1.006%	24.713 ± 1.331%	7.823 ± 0.915%	4.423 ± 0.216%	20.873 ± 0.309%	IC50 ([1]; L. amazonensis promastigotes, 48 h treatment, XTT, listed as pterostilbene): 18 µM; IC50 [1, 23]: 17.7 µM; Decrease of NO production [3, 24]: 3.8 fold; Decrease of NO production [3, 22]: 5.3 fold; LD50 amastigote form of L. infantum [14]: 10.3 μg/mL and 40.2 μM; IC50 [4]: 33.2 µM; LD50 promastigote form of L. infantum [15]: 7.6 μg/mL and 29.6 μM
